Experimental data as given in patent US11414398B2, “Selective organic cation transporters inhibitors for the treatment of depressive disorders” (priority 2017, dated 2022).
Entries after “also recorded” stand apart in the source; their conditions may differ.

Assays:
[1] = Forced swim test, acute administration; format: in vivo
[2] = Acute administration: locomotor activity and anxiety level; format: in vivo
[3] = Metabolic conversion in microsomal fraction; format: in vitro ADME; settings: 100 μM, rat liver microsomes 1 mg protein/mL, NADPH generating system, 37° C.
Protocol: Method. […] The reactions were stopped by adding one-half volume of CH3CN containing 8% CH3COOH and the proteins were removed by centrifugation at 13000 g. […] B=CH3CN/HCOOH (999:1)) at 200 μL/min. Mass spectra were obtained by electrospray ionization (ESI) in positive ionization mode detection under the following conditions: source parameters, […], 15; auxiliary gas, 5; spray voltage, 3.2 kV; capillary temperature, 275° C.; and m/z range for MS recorded generally between 150 and 900. For all products, the indicated parent ions corresponded to [M+H]^+.

[4] = system: autophagy and proteasome pathways in the brain; experiment: Toxicity: cell death pathways in the brain, Western blots; settings: mouse, in vivo
Protocol: (§1) Corticosterone-induced depression. To induce a chronic depression-like state, individually housed mice were administered corticosterone ([…]; Sigma-Aldrich) dissolved in 0.45% (wt/vol) hydroxypropyl-b-cyclodextrin (Sigma-Aldrich) as in (Bacq et al., Mol. Psychiatry, 2012, 17, 926-939). […] The mice were tested successively for coat sate, sucrose consumption, elevated O-maze, object location test and social interaction, before antidepressant treatment, and after 10 days and 3 weeks of treatment. The experimental scheme is represented on FIG. 1A.
Cell death pathways in the brain—Western blots. […] Samples were homogenized by sonication in 2 vol of ice-cold phosphate-buffered saline containing 1% Triton X-100, protease inhibitors (Complete Protease Inhibitor Cocktail, Roche Diagnostics, Basel, Switzerland) and phosphatase inhibitors (Phosphatase Inhibitor Cocktail 3; Sigma-Aldrich). Protein concentrations were determined by Bradford's method. Proteins samples (15 μg) suspended in NuPage LDS sample buffer (Invitrogen, Carlsbad, Calif., USA) were separated by Bis-Tris sodium dodecyl sulfate polyacrylamide gel electrophoresis (10% gels) and transferred onto nitrocellulose membranes (Invitrogen). Transfer efficacy was controlled by Ponceau S staining. Unspecific binding sites were blocked in Tris-buffered saline containing 0.1% Tween-20 and 5% nonfat milk and membranes were immunoprobed with antibodies against β-actin ( 1/2500) and β-catenin ( 1/300) from Sigma-Aldrich or LC3B ( 1/5000) from Abcam. Membranes were incubated with infrared-labeled secondary antibodies (IRDye 700DX and IRDye 800CW; 1/5000; Rockland, Gilbertsvillle, Pa., USA). Immunoblotting was quantified with the Odyssey Infrared Imaging System and Application Software version 3.0 (LI-COR Biosciences, Lincoln, Nebr., USA).

[5] = system: corticosterone-induced depression model; experiment: Coat state, corticosterone-induced depression; format: in vivo, mice; settings: both time points; i.p. daily: I-1 0.1 mg/kg/day, fluoxetine 15 mg/kg/day or both
Protocol: Corticosterone-induced depression. […] The experimental scheme is represented on FIG. 1A. Coat state. The coat state of each animal was assessed weekly as a measure of motivation toward self-care. It was evaluated as the sum of the score of different parts of the body, ranging between 0 for a well-groomed coat and 1 for an unkempt coat for head, neck, dorsal/ventral coat, tail and forepaws/hindpaws (FIG. 1B).

[6] = system: social defeat model; experiment: Social defeat model, social interaction test; format: in vivo, mice; settings: after 3 weeks of treatment; fluoxetine 17 mg/kg, compound (I-1) 0.1 mg/kg as printed
Protocol: (§2) Social defeat model. For social defeat, 8-week-old C57Bl/6J mice were submitted to social defeat stress for 10 consecutive days as described (Berton et al., Science, 2006, 311(5762), 864-8). […] The experimental scheme is represented on FIG. 1H. Social interaction test. The social interaction test was performed in a white open-field (42×42 cm) containing an empty wire mesh cage (10×6.5 cm) located at an extremity of the field in a low luminosity environment (25 lux). Each test mouse was allowed to explore the openfield for two consecutive sessions of 2.5 min. During the second session, an unfamiliar mouse was introduced into the cage. Between the two sessions, the test mouse was placed back into its home cage for approximately one minute. The time spent by the test mouse in the interaction zone, defined as an 8-cm-wide region surrounding the mesh cage, was measured in both sessions by video tracking (Viewpoint, Lyon, France) (FIGS. 1G and 1I).

[7] = system: corticosterone-induced depression model; experiment: Open-field test, corticosterone-induced depression; format: in vivo, mice
Protocol: as §1
Open-field test. The open field consisted of a white Plexiglas field (100×100×30 cm) with the center brightly illuminated (500 lux). General locomotor activity in the center and periphery of the open field were scored for 9 min. The time and number of entries in the center zone (60×60 cm) were evaluated as an index of anxiety-related response (FIG. 2B).

[8] = Effect on weight, corticosterone-induced depression; format: in vivo, mice; settings: weight measured daily; I-1 0.1 mg/kg/day, fluoxetine 15 mg/kg/day or both, i.p.
Protocol: Corticosterone-induced depression. […] The experimental scheme is represented on FIG. 1A. Effect on weight. The weight of tested mice was measured daily in the morning (FIG. 2D).

[9] = system: corticosterone-induced depression model; experiment: Sucrose preference test, corticosterone-induced depression; format: in vivo, mice; settings: i.p. daily: I-1 0.1 mg/kg/day, fluoxetine 15 mg/kg/day or both
Protocol: Corticosterone-induced depression. […] The experimental scheme is represented on FIG. 1A. Sucrose preference test. Singled-house mice were first habituated for 48 h to drink water from two bottles.

[10] = mouse, in vivo
Protocol: as §1
Blood parameter evaluation. Blood was collected in lithium heparin after the 3 weeks of treatment. Hemograms were performed with a Siemens ADVIAZ 120 apparatus. For biochemistry, blood was centrifuged at 2000 g for 10 min at +4° C. and supernatant was analyzed with a COBAS 6000 (Roche) apparatus.

[11] = system: corticosterone-induced depression model; experiment: Elevated O-maze test, corticosterone-induced depression; format: in vivo, mice; settings: after 21 days; i.p. daily: I-1 0.1 mg/kg/day, fluoxetine 15 mg/kg/day or both
Protocol: Corticosterone-induced depression. […] The experimental scheme is represented on FIG. 1A. Elevated O-maze test. The elevated O-maze consisted of an annular runway positioned 40 cm above the floor and divided into two opposing 90° closed sectors and two 90° open sectors. The mice were individually placed in the closed sector and their behavior recorded over a 5-min period. The time spent in each sector and the number of sector entries (a sector entry was defined as all four of the paws being placed in a sector) were determined by video tracking (Viewpoint, Lyon, France) (FIGS. 1D and 1E).

[12] = system: corticosterone-induced depression model; experiment: Social interaction test, corticosterone-induced depression; format: in vivo, mice; settings: 21 days of treatment; compared to corticosterone
Protocol: as §2, with “Corticosterone-induced depression.” for “Social defeat model. For social defeat, 8-week-old C57Bl/6J mice were submitted to social defeat stress for 10 consecutive days as described (Berton et al., Science, 2006, 311(5762), 864-8).”, “1A.” for “1H.”

[13] = compared to fluoxetine-treated and fluoxetine plus compound (I-1) treated groups

## COc1ccc2c(c1)CC/C(=C/c1cc[n+](C(C)C)c3ccccc13)N2C(C)C [Compound I-1, (Z)-1-isopropyl-4-((1-isopropyl-6-methoxy-3,4-dihydroquinolin-2(1H)-ylidene)methyl)quinolin-1-ium Iodide]
[1]
  immobility time in the forced swim test: moderate but reproducible lowering (antidepressant-like) action
[2]
  anxiety level: no effect
  locomotor activity: no effect
[3]
  metabolisation on incubation with microsomes: led to the metabolisation
[4]
  LC3II/LC3I ratios: comparable LC3II/LC3I ratios
  autophagy and proteasome pathways in the brain: does not alter autophagy and proteasome pathways in the brain
  β-catenin levels: comparable
[5]
  coat state: improved coat state at both time points
[6]
  reversal of social aversion (time in interaction zone with target): not by compound (I-1)
[7]; compared to corticosterone, I-1 0.1 mg/kg/day, fluoxetine 15 mg/kg/day or both, i.p.
  locomotor activity at the periphery of the open field: significant effect; also recorded: restored normal locomotor activity
[7]; [13]
  locomotor activity in the center of the open field: significant increase
  time in the center of the open field: significant increase
[8]
  effect on weight: no significant effect; also recorded: did not decrease weight
[9]; 11 days of treatment
  sucrose preference: significantly increased sucrose preference at 11 days
[9]; 21 days of treatment
  sucrose preference: significantly increased sucrose preference at 21 days
[10]
  ALP: 53.3 ± 2.2 U/L
  ALT: 49.5 ± 4.2 U/L
  AST: 164.8 ± 6.2 U/L
  Creatinine: 0.43 ± 0.06 mg/dL
  Hematies: 8.96 ± 0.5 T/L
  Leucocytes: 2.89 ± 0.4 g/L
  Platelets: 254.1 ± 56.5
  Total bilirubin: 0.12 ± 0.01 mg/dL
  Urea: 61.7 ± 1.9 mg/dL
  hepatotoxicity compared with fluoxetine: less hepatotoxicity
[11]
  latency to enter the open zone of the elevated O-maze: decreased the latency to enter this zone
  time in the open zone of the elevated O-maze: increased the time in the open zone
[12]
  interaction time in social interaction test: significant effects on interaction time
